The values that follow come from patent US20130158075A1, “HETEROCYCLIC COMPOUNDS AS DGAT1 INHIBITORS” (PIRAMAL ENTERPRISES LIMITED, priority 2010, published 2013).

A value given as a limit tells only on which side of the number the result lay.

The test addresses T1, hDGAT1 (Homo sapiens, UniProt O75907).
T1 construct: made in house; host or cells: Sf9 insect cells (baculovirus); microsomal fraction
T1 sequence (O75907 1-488): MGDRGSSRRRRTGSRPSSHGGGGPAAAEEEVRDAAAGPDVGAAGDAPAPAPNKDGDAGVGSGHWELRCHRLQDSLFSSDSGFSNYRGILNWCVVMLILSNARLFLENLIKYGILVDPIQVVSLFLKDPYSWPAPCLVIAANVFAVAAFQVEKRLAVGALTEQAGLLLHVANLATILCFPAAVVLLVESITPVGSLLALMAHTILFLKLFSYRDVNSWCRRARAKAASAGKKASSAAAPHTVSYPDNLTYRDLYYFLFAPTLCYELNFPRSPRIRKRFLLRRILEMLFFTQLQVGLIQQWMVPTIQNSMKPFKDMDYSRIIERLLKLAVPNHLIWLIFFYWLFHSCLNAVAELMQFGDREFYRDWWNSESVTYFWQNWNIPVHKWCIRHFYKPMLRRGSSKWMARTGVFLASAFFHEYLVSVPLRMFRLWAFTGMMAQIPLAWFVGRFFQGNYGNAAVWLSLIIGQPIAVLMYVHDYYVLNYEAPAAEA
In words: In-vitro DGAT1 assay with hDGAT1 microsomes from Sf9 cells (14C oleoyl CoA, scintillation counting). It is filed as biochemical. As to conditions: for Percentage inhibition of hDGAT1: at 1 μM; for inhibition at 1 µM: read-out: Percentage inhibition of hDGAT1. As to the method:
Sf9 cells were grown in T25 flasks containing Graces's Insect media with 10% FBS with antibiotic (100 units/mL penicillin, 100 μg/mL streptomycin sulphate, 0.25 μg/mL Amptotericin B as Fungizone) grown in a 27° C. incubator.
hDGAT10RF expression clone (RZPDo839C09146 in pDEST vector) was obtained from RZPD, German Science Center for Genomes research, Germany. hDGAT1 bacmid DNA was obtained by transformation of the hDGAT1 expression clone into DH10Bac E. coli competent cells. Approximately 1 μg of hDGAT1 bacmid DNA was infected into Sf9 cells with Cellfectin (Invitrogen) reagent. Following infection, Sf9 cells were incubated at 27° C. for 30 min. Five hours after infection, the media was replaced with growth media containing antibiotics (100 units/mL penicillin, 100 μg/mL streptomycin sulphate, 0.25 μg/mL Amptotericin B as Fungizone) and incubated at 27° C. for 72 h. The supernatant containing the virus was centrifuged at 1500×g for 5 min, passed through 0.22 μm filter, and subsequently stored at 4° C. The virus was further amplified three more times by re-infection of Sf9 cells and the viral titer was determined by plaque assay.
Sf9 cells were seeded in spinner flasks on day 0 at a cell density of 1×10^6 and infected on day 1 with hDGAT1 baculovirus at a multiplicity of infection (MOI) of 5 and a cell density of 2×10^6. On day 3 (or 66-72 h), cells were harvested and centrifuged at 2500×g for 10 min. Pellet was resuspended in lysis buffer (100 mM sucrose, 50 mM KCl, 40 mM KH2PO4, 30 mM EDTA, pH 7.2) and passed through 21-gauge needle approximately 10 times. The mixture was centrifuged at 12,000 rpm in a Sigma 12158-H rotor at 4° C. for 30 min. The supernatant was subjected to centrifugation at 35,000 rpm in a Beckman Ti-45 rotor at 4° C. for 1 h. The resultant pellet containing the microsomes wasere resuspended overnight in 1 mL of lysis buffer and total protein concentration was estimated using Bradford Reagent. Microsomes were aliquoted and stored at −80° C.
Frozen aliquots of hDGAT1 containing microsomes were thawed (5-10 mg/mL total protein) on ice and diluted to a working stock of 1 mg/mL with DGAT Assay Buffer (DAB). The DGAT reaction assay was performed by following the procedure described in U.S. Pat. No. 6,607,893 with some modifications that are described below.
1 mL stock solution of DGAT1 substrate mixture contains 5.6 μL of ^14C oleoyl CoA (16.8 nCi) and […] of 1,2-dioleoyl-sn-glycerol (1228.5 μM) 1,2-dioleoyl-sn-glycerol stock (19.5 mM) was prepared by dissolving 25 mg of 1,2-dioleoyl-sn-glycerol (Sigma, US) in 2060 μL of acetone.
The assay was performed in duplicates in a reaction volume of 100 μL.
The reaction was started by the addition of 2.5 μL of 1 mg/mL of microsomes (iv) to the mixture of (i), (ii) and (iii), and incubated at 37° C. for 10 min. The reaction was stopped by the addition of 300 μL of Alkaline Ethanol Stop Solution Mix [AESSM; 12.5% of 100% non-denatured ethanol, 10% deionized water, 2.5% 1N NaOH, 75% stop solution (78.4% isopropanol, 19.6% n-heptane, 2% deionized water)] followed by addition of 600 μL of n-heptane. The mixture was vortexed and the triglycerides formed were extracted into the organic heptane phase. 250 μL of the heptane phase was added into 4 mL scintillation cocktail (66.72% toluene, 33.3% TritonX-100, 0.5% PPO, 0.02% POPOP) and counted on a liquid scintillation counter for 1 min. Data was collected and plotted as a function of concentration in nM versus percentage inhibition of hDGAT1 by the compounds of present invention.

As for “3-(5-(4-(3-(2-Chlorophenyl)ureido)phenyl)thiazol-2-yl)-2,2-diethylpropanoic acid [Example 30]”, the “Percentage inhibition of hDGAT1” value is on record as “++ (>50 % Inhibition)”.

Regarding “3-(5-(4-(4-Tert-butyl benzamido)phenyl)oxazol-2-yl)-2,2-dimethylpropanoic acid [Example 126]”, the “Percentage inhibition of hDGAT1” value is listed as “+ (20-50% Inhibition)”.

On to “4-(3-(4-(3-(2,4-Difluorophenyl)ureido)phenyl)-1,2,4-oxadiazol-5-yl)butanoic acid [Example 332]”, for which the “Percentage inhibition of hDGAT1” value is “+ (20-50% Inhibition)”.

Regarding “4-(5-(4-(3-(2-Fluorophenyl)-2-methylguanidino)phenyl)thiazol-2-yl)-2,2-dimethyl butanoic acid [Example 271]”, the “Percentage inhibition of hDGAT1” value is “+ (20-50% Inhibition)”.

As a reminder, the inhibition is the percentage by which the read-out fell short of the control. Consider `O=C(O)CCc1ncc(-c2ccc(NC(=O)Nc3cccc(C(F)(F)F)c3)cc2)s1` [Example 7, 3-(5-(4-(3-(3-(Trifluoromethyl)phenyl)ureido)phenyl)thiazol-2-yl)propanoic acid], for which the inhibition at 1 µM was over 50%.

`O=C(O)CCc1ncc(-c2ccc(NC(=O)Nc3ccccc3Cl)cc2)s1` [Example 9, 3-(5-(4-(3-(2-Chlorophenyl)ureido)phenyl)thiazol-2-yl)propanoic acid]: the inhibition at 1 µM was over 50%.

As to `O=C(O)CCc1ncc(-c2ccc(NC(=O)NC3CCCCC3)cc2)s1` [Example 11, 3-(5-(4-(3-Cyclohexylureido)phenyl)thiazol-2-yl)propanoic acid], the inhibition at 1 µM was over 50%.

Take `O=C(O)CCc1ncc(-c2ccc(NC(=O)Nc3ccc(Cl)cc3Oc3ccccc3)cc2)s1` [Example 13, 3-(5-(4-(3-(4-Chloro-2-phenoxyphenyl)ureido)phenyl)thiazol-2-yl)propanoic acid]: the inhibition at 1 µM was over 50%.

Take `CC(C)(C)c1ccc(C(=O)Nc2ccc(-c3cnc(CCC(=O)O)s3)cc2)cc1` [Example 15, 3-(5-(4-(4-Tert-butylbenzamido)phenyl)thiazol-2-yl)propanoic acid]: the inhibition at 1 µM was over 50%.

Take `CCCCCc1ccc(C(=O)Nc2ccc(-c3cnc(CCC(=O)O)s3)cc2)cc1` [Example 17, 3-(5-(4-(4-Pentylbenzamido)phenyl)thiazol-2-yl)propanoic acid]: the inhibition at 1 µM was over 50%.

For `CCOc1cc(COC)cc(C(=O)Nc2ccc(-c3cnc(CCC(=O)O)s3)cc2)c1` [Example 19, 3-(5-(4-(3-Ethoxy-5-(methoxymethyl)benzamido)phenyl)thiazol-2-yl)propanoic acid], the inhibition at 1 µM is over 50%.

Turning to `O=C(O)CCc1ncc(-c2ccc(NC(=O)c3ccc4ccccc4c3)cc2)s1` [Example 21, 3-(5-(4-(2-Naphthamido)phenyl)thiazol-2-yl)propanoic acid], the inhibition at 1 µM is over 50%.

With `CCCCOc1ccc(C(=O)Nc2ccc(-c3cnc(CCC(=O)O)s3)cc2)cc1` [Example 23, 3-(5-(4-(4-Butoxybenzamido)phenyl)thiazol-2-yl)propanoic acid], the inhibition at 1 µM was over 50%.

`COc1ccc(S(=O)(=O)Nc2ccc(-c3cnc(CCC(=O)O)s3)cc2)c(OC)c1` [Example 25, 3-(5-(4-(2,4-Dimethoxyphenylsulfonamido)phenyl)thiazol-2-yl)propanoic acid]: the inhibition at 1 µM is 20 to 50%.

For the compound `CC(C)(Cc1ncc(-c2ccc(NC(=O)Nc3ccc(C(F)(F)F)cc3)cc2)s1)C(=O)O` [Example 32, 2,2-Dimethyl-3-(5-(4-(3-(4-(trifluoromethyl)phenyl)ureido)phenyl)thiazol-2-yl)propanoic acid], the inhibition at 1 µM is over 50%.

Take `CC(C)(Cc1ncc(-c2ccc(NC(=O)Nc3ccc(F)cc3)cc2)s1)C(=O)O` [Example 34, 3-(5-(4-(3-(4-Fluorophenyl)ureido)phenyl)thiazol-2-yl)-2,2-dimethylpropanoic acid]: the inhibition at 1 µM lay within 20 to 50%.

For `COc1ccc(NC(=O)Nc2ccc(-c3cnc(CC(C)(C)C(=O)O)s3)cc2)cc1` [Example 36, 3-(5-(4-(3-(4-Methoxyphenyl)ureido)phenyl)thiazol-2-yl)-2,2-dimethyl propanoic acid], the inhibition at 1 µM was over 50%.

With `CC(C)(Cc1ncc(-c2ccc(NC(=O)NC3CCCCC3)cc2)s1)C(=O)O` [Example 38, 3-(5-(4-(3-Cyclohexylureido)phenyl)thiazol-2-yl)-2,2-dimethylpropanoic acid], the inhibition at 1 µM lay in the range of 20 to 50%.

Take `CC(C)(Cc1ncc(-c2ccc(NC(=O)Nc3ccc(Cl)cc3Oc3ccccc3)cc2)s1)C(=O)O` [Example 40, 3-(5-(4-(3-(4-Chloro-2-phenoxyphenyl)ureido)phenyl)thiazol-2-yl)-2,2-dimethylpropanoic acid]: the inhibition at 1 µM is over 50%.

Regarding `CC(C)(Cc1ncc(-c2ccc(NC(=O)c3ccc(C(C)(C)C)cc3)cc2)s1)C(=O)O` [Example 42, 3-(5-(4-(4-tert-Butylbenzamido)phenyl)thiazol-2-yl)-2,2-dimethylpropanoic acid], the inhibition at 1 µM is 20 to 50%.

With `CC(C)(Cc1ncc(-c2ccc(NC(=O)c3ccc(-c4ccccc4)cc3)cc2)s1)C(=O)O` [Example 44, 3-(5-(4-Biphenyl-4-ylcarboxamidophenyl)thiazol-2-yl)-2,2-dimethylpropanoic acid], the “Percentage inhibition of hDGAT1” value is recorded as “+ (20-50% Inhibition)”.

For `O=C(O)CCCc1ncc(-c2ccc(NC(=O)Nc3cccc(C(F)(F)F)c3)cc2)s1` [Example 49, 4-(5-(4-(3-(3-(Trifluoromethyl)phenyl)ureido)phenyl)thiazol-2-yl)butanoic acid], the inhibition at 1 µM is over 50%.

Regarding `O=C(O)CCCc1ncc(-c2ccc(NC(=O)Nc3ccccc3Cl)cc2)s1` [Example 51, 4-(5-(4-(3-(2-Chlorophenyl)ureido)phenyl)thiazol-2-yl)butanoic acid], the inhibition at 1 µM is over 50%.

Regarding `Cc1ccc(NC(=O)Nc2ccc(-c3cnc(CCCC(=O)O)s3)cc2)cc1C` [Example 53, 4-(5-(4-(3-(3,4-Dimethylphenyl)ureido)phenyl)thiazol-2-yl)butanoic acid], the inhibition at 1 µM is over 50%.

For the compound `O=C(O)CCCc1ncc(-c2ccc(NC(=O)Nc3ccc(Cl)cc3Oc3ccccc3)cc2)s1` [Example 55, 4-(5-(4-(3-(4-Chloro-2-phenoxyphenyl)ureido)phenyl)thiazol-2-yl)butanoic acid], the inhibition at 1 µM is over 50%.

In the case of `CC(C)(C)c1ccc(C(=O)Nc2ccc(-c3cnc(CCCC(=O)O)s3)cc2)cc1` [Example 57, 4-(5-(4-(4-Tert-butylbenzamido)phenyl)thiazol-2-yl)butanoic acid], the inhibition at 1 µM lay in the range of 20 to 50%.

`CCCCCc1ccc(C(=O)Nc2ccc(-c3cnc(CCCC(=O)O)s3)cc2)cc1` [Example 59, 4-(5-(4-(4-Pentylbenzamido)phenyl)thiazol-2-yl)butanoic acid]: the inhibition at 1 µM is over 50%.
